In US8716480B2, “7-aryl-1,2,4-triazolo[4,3-a]pyridine derivatives and their use as positive allosteric modulators of mGluR2 receptors” (Janssen Pharmaceuticals, Inc., priority 2009, dated 2014):

How the values were obtained:
[1] = target: T1, human mGluR2 receptor (Homo sapiens, UniProt Q14416); assay: [35S]GTPγS binding assay (PAM); format: biochemical; conditions: in presence of glutamate at predetermined EC20, membranes from CHO cells transfected with human mGluR2; for EC50: read-out: GTPγS -hR2 PAM pEC50 (converted)
T1 construct: expressed in transfected cells; host or cells: CHO cells (membranes)
Description: [^35S]GTPγS binding assay
The [^35S]GTPγS binding assay is a functional membrane-based assay used to study G-protein coupled receptor (GPCR) function whereby incorporation of a non-hydrolysable form of GTP, [^35S]GTPγS (guanosine 5′-triphosphate, labelled with […] ^35S), is measured.
CHO-cells were cultured to pre-confluence and stimulated with 5 mM butyrate for 24 h, prior to washing in PBS, and then collected by scraping in homogenisation buffer (50 mM Tris-HCl buffer, pH 7.4, 4° C.). Cell lysates were homogenized briefly using an ultra-turrax homogenizer. The homogenate was centrifuged at 16,000 RPM (Sorvall RC-5C plus rotor SS-34) for 10 minutes and the supernatant discarded. The pellet was resuspended in 5 mM Tris-HCl, pH 7.4 and centrifuged again (18,000 RPM, 20 min, 4° C.). The final pellet was resuspended in 50 mM Tris-HCl, pH 7.4 and stored at −80° C. in appropriate aliquots before use. Protein concentration was determined by the Bradford method (Bio-Rad, USA) with bovine serum albumin as standard.
Measurement of mGluR2 positive allosteric modulatory activity of test compounds was performed as follows. Test compounds and glutamate were diluted in assay buffer containing 10 mM HEPES acid, 10 mM HEPES salt, pH 7.4, 100 mM NaCl, 3 mM MgCl2 and 10 μM GDP. Human mGlu2 receptor-containing membranes were thawed on ice and diluted in assay buffer supplemented with 14 μg/ml saponin. Membranes were pre-incubated with compound alone or together with a predefined (˜EC20) concentration of glutamate (PAM assay) for 30 min at 30° C. After addition of [^35S]GTPγS (f.c. 0.1 nM) microplates were shaken briefly and further incubated to allow [^35S]GTPγS incorporation on activation (30 minutes, 30° C.). Final assay mixtures contained 7 μg of membrane protein in 10 mM HEPES acid, 10 mM HEPES salt, pH 7.4, 100 mM NaCl, 3 mM MgCl2, 10 μM GDP and 10 μg/ml saponin. Total reaction volume was […] Reactions were terminated by rapid filtration through Unifilter-96 GF/B filter plates (Packard, Meriden, Conn.) using a 96-well Packard filtermate harvester. Filters were washed 6 times with ice-cold 10 mM NaH2PO4/10 mM Na2HPO4, pH 7.4. Filters were then air-dried, and 40 μl of liquid scintillation cocktail (Microscint-O) was added to each well. Membrane-bound radioactivity was counted in a Microplate Scintillation and Luminescence Counter from Packard.
obtained in the presence of EC20 of mGluR2 agonist glutamate to determine positive allosteric modulation (PAM)—were generated using the Lexis software interface (developed at J&J). Data were calculated as % of the control glutamate response, defined as the maximal response that is generated upon addition of glutamate alone. Sigmoid concentration-response curves plotting these percentages versus the log concentration of the test compound were analyzed using non-linear regression analysis. The concentration producing half-maximal effect is then calculated as EC50.
All compounds were tested in presence of mGluR2 agonist, glutamate at a predetermined EC20 concentration, to determine positive allosteric modulation (GTPγS-PAM). pEC50 values were calculated from a concentration-response experiment of at least 10 concentrations.

T1 sequence (Q14416 19-872): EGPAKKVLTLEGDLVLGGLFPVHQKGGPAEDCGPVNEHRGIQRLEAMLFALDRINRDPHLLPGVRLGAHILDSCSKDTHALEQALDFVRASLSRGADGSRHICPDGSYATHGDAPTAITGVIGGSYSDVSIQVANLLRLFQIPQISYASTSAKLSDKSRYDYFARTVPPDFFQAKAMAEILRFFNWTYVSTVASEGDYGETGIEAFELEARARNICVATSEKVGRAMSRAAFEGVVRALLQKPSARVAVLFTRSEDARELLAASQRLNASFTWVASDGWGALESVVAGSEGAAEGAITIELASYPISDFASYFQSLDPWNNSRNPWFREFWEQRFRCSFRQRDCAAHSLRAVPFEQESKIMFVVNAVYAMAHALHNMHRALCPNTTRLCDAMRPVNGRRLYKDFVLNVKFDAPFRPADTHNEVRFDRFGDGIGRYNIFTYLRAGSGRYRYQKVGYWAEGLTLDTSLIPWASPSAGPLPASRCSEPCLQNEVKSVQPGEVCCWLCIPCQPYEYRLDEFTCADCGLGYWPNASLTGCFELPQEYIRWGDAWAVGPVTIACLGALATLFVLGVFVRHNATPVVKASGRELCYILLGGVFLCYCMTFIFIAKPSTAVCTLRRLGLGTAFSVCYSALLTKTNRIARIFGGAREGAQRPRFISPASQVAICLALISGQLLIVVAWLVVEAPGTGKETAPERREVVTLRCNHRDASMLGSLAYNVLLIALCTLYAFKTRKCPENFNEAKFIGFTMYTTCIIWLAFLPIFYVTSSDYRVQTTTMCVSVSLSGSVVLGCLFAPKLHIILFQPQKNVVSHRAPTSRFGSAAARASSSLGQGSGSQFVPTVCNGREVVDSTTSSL

Row | Compound | GTPγS -hR2 PAM pEC50 [1] | EC50 [1] [nM] | melting point [°C]
1 | FC(F)(F)c1c(-c2ccc(NC3CCOCC3)c(Cl)c2)ccn2c(CC3CC3)nnc12 [Co. No. 10, 8-Trifluoromethyl-7-[3-chloro-4-(tetrahydro-pyran-4-ylamino)-phenyl]-3-cyclopropylmethyl-[1,2,4]triazolo[4,3-a]pyridine] |  | 17 | 198.4
2 | O[C@H]1CC[C@@H](Oc2ccc(-c3ccn4c(CC(F)(F)F)nnc4c3Cl)cc2Cl)CC1 [Co. No. 26] | 7.01 |  | 
3 | Cc1ccc(Oc2ccc(-c3ccn4c(CC(F)(F)F)nnc4c3Cl)cc2Cl)c(C)n1 [Co. No. 55] | 8.00 |  | 
4 | Cc1cc(Oc2ccc(-c3ccn4c(CCC5CC5)nnc4c3Cl)cc2F)ccn1 [Co. No. 41] | 6.54 |  | 
5 | CCOCc1nnc2c(C(F)(F)F)c(-c3ccc(Oc4ccnc(C)c4)c(F)c3)ccn12 [Co. No. 36, 3-Ethoxymethyl-7-[3-fluoro-4-(2-methyl-pyridin-4-yloxy)-phenyl]-8-trifluoromethyl-[1,2,4]triazolo[4,3-a]pyridine] |  | 219 | 171.2
6 | O[C@]1(C2CC2)CC[C@H](Nc2ccc(-c3ccn4c(CC5CC5)nnc4c3C(F)(F)F)cc2Cl)CC1 [Co. No. 47] | 8.79 |  | 
7 | CCOCc1nnc2c(Cl)c(-c3ccc(Oc4ccc(C)nc4C)c(F)c3)ccn12 [Co. No. 33] | 7.13 |  | 
8 | O[C@H]1CC[C@H](Oc2ccc(-c3ccn4c(CC(F)(F)F)nnc4c3Cl)cc2Cl)CC1 [Co. No. 27] | 6.80 |  | 
9 | CCOCc1nnc2c(C(F)(F)F)c(-c3ccc(Oc4cc(C)nc(C)c4)c(F)c3)ccn12 [Co. No. 37] | 6.63 |  | 
10 | FC(F)(F)c1c(-c2ccc(OC3CCOCC3)c(Cl)c2)ccn2c(CC3CC3)nnc12 [Co. No. 9, 8-Trifluoromethyl-7-[3-chloro-4-(tetrahydro-pyran-4-yloxy)-phenyl]-3-cyclopropylmethyl-[1,2,4]triazolo[4,3-a]pyridine] |  | 40.7 | 176.9
11 | FC(F)(F)Cc1nnc2c(Cl)c(-c3ccc(NC4CCOCC4)c(Cl)c3)ccn12 [Co. No. 30] | 6.66 |  | 
12 | Cc1cc(Oc2ccc(-c3ccn4c(CC5CC5)nnc4c3C(F)(F)F)cc2F)cc(C)n1 [Co. No. 38] | 7.16 |  | 
13 | Cc1cc(Oc2ccc(-c3ccn4c(CC(F)(F)F)nnc4c3Cl)cc2Cl)ccn1 [Co. No. 40] | 6.78 |  | 
14 | Cc1ccc(Oc2ccc(-c3ccn4c(CC5CC5)nnc4c3C)cc2Cl)c(C)n1 [Co. No. 61] | 7.70 |  | 
15 | CCOCc1nnc2c(C(F)(F)F)c(-c3ccc(Oc4ccc(C)nc4C)c(F)c3)ccn12 [Co. No. 44] | 7.51 |  | 
16 | CC(C)Nc1ccc(-c2ccn3c(CC4CC4)nnc3c2Cl)cc1Cl [Co. No. 51] | 7.13 |  | 
17 | CC1(O)CCN(Cc2ccc(-c3ccn4c(CC5CC5)nnc4c3C(F)(F)F)cc2Cl)CC1 [Co. No. 72] | 6.49 |  | 
18 | CC(C)Nc1ccc(-c2ccn3c(CC4CC4)nnc3c2C(F)(F)F)cc1F [Co. No. 49, 3-Cyclopropylmethyl-7-[3-fluoro-4-(isopropylamino)-phenyl]-8-trifluoromethyl-[1,2,4]triazolo[4,3-a]pyridine] |  | 60.3 | 196.9
19 | Cc1ccc(CNc2ccc(-c3ccn4c(CC5CC5)nnc4c3C(F)(F)F)cc2F)cn1 [Co. No. 78] | 7.98 |  | 
20 | FC(F)(F)c1c(-c2ccc(NC3CC3)c(Cl)c2)ccn2c(CC3CC3)nnc12 [Co. No. 31] | 8.15 |  | 
21 | FC(F)(F)c1c(-c2ccc(N3CCOCC3)nc2)ccn2c(CC3CC3)nnc12 [Co. No. 68] | 5.90 |  | 
22 | Clc1cc(-c2ccn3c(CC4CC4)nnc3c2Cl)ccc1OC1CCOCC1 [Co. No. 23] | 6.53 |  | 
23 | CC(C)Nc1ccc(-c2ccn3c(CC4CC4)nnc3c2Cl)cc1F [Co. No. 50] | 6.65 |  | 
24 | Cc1ccc(Oc2ccc(-c3ccn4c(CC5CC5)nnc4c3C(F)(F)F)cc2Cl)c(C)n1 [Co. No. 53] | 8.79 |  | 
25 | CC(C)Nc1ccc(-c2ccn3c(CC4CC4)nnc3c2C(F)(F)F)cc1Cl [Co. No. 52] | 7.77 |  | 
26 | FC(F)(F)c1c(-c2ccc(CN3CCOCC3)c(Cl)c2)ccn2c(CC3CC3)nnc12 [Co. No. 71] | 7.02 |  | 
27 | FC(F)(F)c1c(-c2ccc(CNC3CCOCC3)c(Cl)c2)ccn2c(CC3CC3)nnc12 [Co. No. 74] | 6.21 |  | 
28 | FC(F)(F)c1c(-c2ccc(N3CCCCC3)nc2)ccn2c(CC3CC3)nnc12 [Co. No. 70] | 6.67 |  | 
29 | CCOCc1nnc2c(C)c(-c3ccc(Oc4ccc(C)nc4C)c(Cl)c3)ccn12 [Co. No. 65] | 7.26 |  | 

Further lines, results first:

Row | GTPγS -hR2 PAM pEC50 [1] | EC50 [1] [nM] | melting point [°C] | Compound
30 | 6.05 |  |  | Clc1c(-c2ccccc2)ccn2c(CN3CCOc4ccccc4C3)nnc12 [Co. No. 28]
31 |  | 36.3 | > 300 | Clc1cc(-c2ccn3c(CC4CC4)nnc3c2Cl)ccc1NC1CC1 [Co. No. 6]
32 | 5.61 |  |  | Clc1c(-c2ccc(N3CCOCC3)nc2)ccn2c(CC3CC3)nnc12 [Co. No. 67]
33 |  |  | 156.7 | Clc1c(-c2ccc(Oc3ccccc3)cc2)ccn2c(CC3CC3)nnc12 [Co. No. 8, 8-Chloro-3-cyclopropylmethyl-7-(4-phenoxy-phenyl)-1,2,4-triazolo[4,3-a]pyridine]
34 |  | 41.7 | 273.7 | O[C@H]1CC[C@H](Nc2ccc(-c3ccn4c(CC5CC5)nnc4c3Cl)cc2Cl)CC1 [Co. No. 12, 8-Cloro-7-[3-chloro-4-(4-hydroxy-cyclohexylamino)-phenyl]-3-cyclopropylmethyl-[1,2,4]triazolo[4,3-a]pyridine]
35 |  | 191 |  | Clc1c(-c2ccccc2)ccn2c(CN3CCC(c4ccccc4)CC3)nnc12 [Co. No. 5]
36 | 6.51 |  |  | CC(C)Nc1ccc(-c2ccn3c(CC4CC4)nnc3c2Cl)cn1 [Co. No. 66]
37 | 6.53 |  |  | Clc1c(-c2ccc(N3CCCCC3)nc2)ccn2c(CC3CC3)nnc12 [Co. No. 69]
38 | 6.13 |  |  | FC(F)(F)C1CCN(Cc2ccc(-c3ccn4c(CC5CC5)nnc4c3Cl)cc2)CC1 [Co. No. 19]
39 | 7.15 |  |  | COc1ccc(CNc2ccc(-c3ccn4c(CC5CC5)nnc4c3Cl)cc2)cn1 [Co. No. 59]
40 |  | 22.9 |  | OC1CCC(Nc2ccc(-c3ccn4c(CC5CC5)nnc4c3Cl)cc2Cl)CC1 (single isomer, unassigned) [Co. No. 13-a, 7-[3-Chloro-4-(4-hydroxy-cyclohexylamino)-phenyl]-8-chloro-3-cyclopropylmethyl-[1,2,4]triazolo[4,3-a]pyridine]
41 | 6.88 |  |  | Clc1c(-c2ccc(Oc3ccccc3)cc2)ccn2c(C3CCC3)nnc12 [Co. No. 17]
42 | 7.40 |  |  | O[C@H]1CC[C@H](Nc2ccc(-c3ccn4c(CC(F)(F)F)nnc4c3Cl)cc2Cl)CC1 [Co. No. 29]
43 | 7.11 |  |  | O[C@H]1CC[C@H](Nc2ccc(-c3ccn4c(CC5CC5)nnc4c3Cl)cc2Cl)CC1 [Co. No. 21]
44 | 7.20 |  |  | Fc1cc(-c2ccn3c(CC4CC4)nnc3c2Cl)ccc1NC1CC1 [Co. No. 25]
